Where a name gives a salt, the structure may show the parent alone. Marks after values point to notes of the source that are not given here.
Legend:
Assay type in all cases: physicochemical
[1] = Stress testing: 1 month, 60° C. open container, relative humidity <30% (physico-chemical stability comparison); conditions: for Assay (HPLC), 1 month / Related substances (HPLC), 1 month / TG (moisture content), 1 month / XRPD (identity of the material), 1 month: after 1 month, 60° C. open, R.H. <30%; for Assay (HPLC), 1 month / Related substances (HPLC), 1 month / TG (moisture content), 1 month / XRPD (identity of the material), 1 month / Related substances (HPLC), Initial / Assay (HPLC), Initial / TG (moisture content), Initial / XRPD (identity of the material), Initial / Proneness to degradation on storage (in words): maleate; for Related substances (HPLC), Initial / Assay (HPLC), Initial / TG (moisture content), Initial / XRPD (identity of the material), Initial: before storage; for Related substances (HPLC), Initial: Qalpha value from release analysis, Amorphous value from recontrol analysis; for Assay (HPLC), Initial / TG (moisture content), Initial / XRPD (identity of the material), Initial: release / recontrol analysis; for Proneness to degradation on storage (in words): summary of both stress tests (Tables 5 and 6), 1 month, 60° C.
Description: (§1) Samples of crystal form Qalpha and amorphous (R)-5-[2-(5,6-diethyl-indan-2-ylamino)-1-hydroxyethyl]-8-hydroxy-1H-quinolin-2-one maleate are stress tested before and after storage for 1 month to provide for physico-chemical stability comparison.
(§2) In a first test the samples are stored at 60° C. in an open container with a relative humidity <30%. In a second test the samples are stored at 60° C. in an open container with a relative humidity of about 75%. The results are shown in Tables 5 and 6 below respectively.
(§3) The tests determine (a) purity and (b) assay as determined by high performance liquid chromatography (HPLC) using HP1100 from Agillent with a YMC-packs ODS-AQ 3 μm column; (c) identity of the material as determined by the X-ray diffraction pattern measured using a SCINTAG™ X-ray diffractometer with a CuK alpha radiation source (45 kV, 40 mA); and (d) moisture content determined using a TGA851e Mettler Toledo STAR System thermogravimetry analysis balance with nitrogen flow 50 ml/min.

[2] = Stress testing: 1 month, 60° C./75% RH open container (physico-chemical stability comparison); conditions: for XRPD (identity of the material), 1 month / Assay (HPLC), 1 month / Related substances (HPLC), 1 month / TG (moisture content), 1 month: after 1 month, 60° C./75% RH open; for Assay (HPLC), 1 month / Related substances (HPLC), 1 month / TG (moisture content), 1 month / Assay (HPLC), Initial / Related substances (HPLC), Initial / TG (moisture content), Initial / XRPD (identity of the material), Initial: maleate; for Assay (HPLC), Initial / Related substances (HPLC), Initial / TG (moisture content), Initial / XRPD (identity of the material), Initial: before storage, release / recontrol analysis
Description: as §1, §2, §3

[3] = Solubility behaviour / kinetic of dissolution in comparison to the amorphous part

CCc1cc2c(cc1CC)CC(NC[C@H](O)c1ccc(O)c3[nH]c(=O)ccc13)C2 [Amorphous, (R)-5-[2-(5,6-diethyl-indan-2-ylamino)-1-hydroxyethyl]-8-hydroxy-1H-quinolin-2-one maleate, reference compound]
Assay (HPLC), 1 month [1]: 91.5%
Related substances (HPLC), 1 month [1]: 4.3%
TG (moisture content), 1 month [1]: 0.74%
XRPD (identity of the material), 1 month [1]: Amorphous
Related substances (HPLC), Initial [1]: 0.22%#
Assay (HPLC), Initial [1]: 99.7%#
TG (moisture content), Initial [1]: 1.8%#
XRPD (identity of the material), Initial [1]: Amorphous#
Proneness to degradation on storage (in words) ([1]; listed as amorphous material): more prone to degradation than Qalpha
XRPD (identity of the material), 1 month [2]: Qalpha
Assay (HPLC), 1 month [2]: 98.9%
Related substances (HPLC), 1 month [2]: 0.73%
TG (moisture content), 1 month [2]: 0.23%
Assay (HPLC), Initial [2]: 99.7%#
Related substances (HPLC), Initial [2]: 0.22%#
TG (moisture content), Initial [2]: 1.8%#
XRPD (identity of the material), Initial [2]: Amorphous#
Conversion of solid form on storage (in words) ([2]; stored at 60° C./75% R.H.): converts to crystal form Qalpha

CCc1cc2c(cc1CC)CC(NC[C@H](O)c1ccc(O)c3[nH]c(=O)ccc13)C2 [Qalpha, (R)-5-[2-(5,6-diethyl-indan-2-ylamino)-1-hydroxyethyl]-8-hydroxy-1H-quinolin-2-one maleate]
Assay (HPLC), 1 month [1]: 98.8%
Related substances (HPLC), 1 month [1]: 0.25%
TG (moisture content), 1 month [1]: <0.05%
XRPD (identity of the material), 1 month [1]: Qalpha
Related substances (HPLC), Initial [1]: 0.23%*
Assay (HPLC), Initial [1]: 100.2%*
TG (moisture content), Initial [1]: 0.07%*
XRPD (identity of the material), Initial [1]: Qalpha*
Changes after storage (in words) ([1]; storage for 1 month, both stress tests): No significant changes
Proneness to degradation on storage (in words) ([1]; listed as crystal form Qalpha): less prone to degradation or conversion than the amorphous form on storage
XRPD (identity of the material), 1 month [2]: Qalpha
Assay (HPLC), 1 month [2]: 99.5%
Related substances (HPLC), 1 month [2]: 0.26%
TG (moisture content), 1 month [2]: <0.05%
Assay (HPLC), Initial [2]: 100.2%*
Related substances (HPLC), Initial [2]: 0.23%*
TG (moisture content), Initial [2]: 0.07%*
XRPD (identity of the material), Initial [2]: Qalpha*
Solubility behaviour: kinetic of dissolution (in words) [3]: lower kinetic of dissolution
